Where a name gives a salt, the structure may show the parent alone. Read-outs that look alike come from different tables or passages of the source.
Tested on: ATGL-KO iPSCs
Experiment: High throughput iPSC chemical screening, Oil Red O (ORO) lipid accumulation; further: test concentration or dose not given here
Assay type: cell-based, mouse
[1] = normalized ORO level vs DMSO-treated cells, compound present during 7 days differentiation, 96-well, negative = decrease in lipid accumulation

Molecule | Z-score [1] | Z-score
CCOC(=O)[C@H](CCc1ccccc1)N[C@@H](C)C(=O)N1[C@H](C(=O)O)C[C@@H]2CCC[C@@H]21 [Ramipril] | 1.188 | –
NS(=O)(=O)c1cc2c(cc1Cl)NCNS2(=O)=O [Hydrochlorothiazide] | 1.18 | –
Cc1c(N(C)CS(=O)(=O)[O-])c(=O)n(-c2ccccc2)n1C.[Na+] [Dipyrone] | 1.061 | –
Nc1c2c(nc3ccccc13)CCCC2O.O=C(O)/C=C\C(=O)O (racemic) [Hydroxytacrine maleate (R,S)] | −0.525 | –
Fc1ccc([C@@H]2CCNC[C@H]2COc2ccc3c(c2)OCO3)cc1 [Paroxetine Hydrochloride] | −0.9182 | –
COCCc1ccc(OCC(O)CNC(C)C)cc1.COCCc1ccc(OCC(O)CNC(C)C)cc1.O=C(O)C(O)C(O)C(=O)O (racemic) [Metoprolol-(+,−) (+)-tartrate salt] | −0.4304 | –
CCN(CC)CCCC(C)Nc1ccnc2cc(Cl)ccc12 (stereo not drawn) [Chloroquine diphosphate] | – | 0.8301
C[N+]1(C)[C@@H]2CC[C@H]1C[C@@H](OC(=O)C(CO)c1ccccc1)C2 (stereo partly drawn) [Methylatropine nitrate] | −1.1494 | –
Nc1ccc(S(=O)(=O)Nc2cnc3ccccc3n2)cc1 [Sulfaquinoxaline sodium salt] | 0.579 | –
CC(C)(C)NC[C@H](O)COc1cccc2c1CCCC2=O.Cl [(−)-Levobunolol hydrochloride] | −0.5665 | –
Cc1cccc(N(C)C(=S)Oc2ccc3ccccc3c2)c1 [Tolnaftate] | 0.2441 | –
CC(=O)OCC1=C(C(=O)O)N2C(=O)[C@@H](NC(=O)Cc3cccs3)[C@H]2SC1 [Cephalothin sodium salt] | 0.8566 | –
C[C@]12CC[C@@H]3c4ccc(O)cc4CC[C@H]3[C@@H]1CCC2=O [Estrone] | −1.8166 | –
COc1cnc(NS(=O)(=O)c2ccc(N)cc2)nc1 [Sulfameter] | −0.1501 | –
CN(C)CCn1nnnc1SCC1=C(C(=O)O)N2C(=O)[C@@H](NC(=O)Cc3csc(N)n3)[C@H]2SC1 [Cefotiam hydrochloride] | −0.8453 | –
C[N+](C)(C)CCCCCC[N+](C)(C)C.O.O.[Br-].[Br-] [Hexamethonium dibromide dihydrate] | −0.5997 | –
CCOC(=O)C1=C(C)NC(C)=C(C(=O)OC)C1c1cccc(Cl)c1Cl (stereo not drawn) [Felodipine] | 1.337 | –
CN(C)[C@@H]1C(O)=C(C(=O)NCN2CCCC2)C(=O)[C@@]2(O)C(O)=C3C(=O)c4c(O)cccc4[C@@](C)(O)[C@H]3C[C@@H]12 [Rolitetracycline] | −0.3523 | –
CCCOc1ccccc1-c1nc2nn[nH]c2c(=O)[nH]1 [Zaprinast] | −0.4842 | –
O=[N+]([O-])c1cc([As](=O)(O)O)ccc1O [Roxarsone] | −0.5936 | –
C[C@]12C=CC(=O)C=C1CC[C@@H]1[C@@H]2[C@@H](O)C[C@@]2(C)[C@H]1CC[C@]2(O)C(=O)CO [Prednisolone] | −0.8986 | –
Terbutaline hemisulfate | 2.278 | –
COc1ccc(CCN2CCC(Nc3nc4ccccc4n3Cc3ccc(F)cc3)CC2)cc1 [Astemizole] | −0.7215 | –
c1ccc(CNc2ncnc3[nH]cnc23)cc1 [Aminopurine, 6-benzyl] | −0.7385 | –
CC[C@@H]1C(=O)OC[C@@H]1Cc1cncn1C [Pilocarpine nitrate] | −0.2819 | –
CO[C@@]1(NC(=O)Cc2cccs2)C(=O)N2C(C(=O)O)=C(COC(N)=O)CS[C@@H]21 [Cefoxitin sodium salt] | −1.629 | –
O=C(CCCN1CCC(n2c(O)nc3ccccc32)CC1)c1ccc(F)cc1 [Benperidol] | −0.2696 | –
N=C(N)c1ccc(OCCCCCOc2ccc(C(=N)N)cc2)cc1 [Pentamidine isethionate] | 14.9126 | –
COc1cc([C@@H]2c3cc4c(cc3[C@@H](O[C@@H]3O[C@@H]5CO[C@@H](C)O[C@H]5[C@H](O)[C@H]3O)[C@H]3COC(=O)[C@H]23)OCO4)cc(OC)c1O [Etoposide] | 39.4033 | –
Nc1cc(C(Cl)=C(Cl)Cl)c(S(N)(=O)=O)cc1S(N)(=O)=O [Clorsulon] | −0.1576 | –
